Source: US8759366B2, “Aminopyrimidines as SYK inhibitors” (Merck Sharp & Dohme Corp., priority 2009, dated 2014)
Where two headings read alike, the source gives them in different places. Each block holds one molecule with its values, some of them ahead of it.

Biological target: recombinant human SYK (GST-hSYK fusion protein) (Homo sapiens (Human), UniProt P43405)
[1] = read-out: rhSYK Activity, Table 36A
[2] = read-out: rhSYK Activity, recombinant human SYK, HTRF assay, class symbols
[3] = read-out: rhSYK Activity, Table 113C
[4] = read-out: rhSYK Activity, Table 119, HTRF assay, IC50 class symbols
[5] = read-out: rhSYK Activity, Table 33-A
[6] = read-out: rhSYK Activity, Table 33B

Text: Homogeneous Time-Resolved Fluorescence (HTRF) Assay for the Recombinant Human SYK Enzyme:

SMILES: O=C(O)C1CCC(c2ncc(-c3cccc(Nc4nccc(C(F)(F)F)n4)c3)s2)CC1 (stereo not shown) [Example 36A-4]
- IC50 [1]: < 100 nM

SMILES: Cc1cc(Nc2ncc(Cl)c(C)n2)cc(-c2cnc(C3(O)CCN(C(N)=O)C3)s2)c1 (stereo not shown) [Example 54B-17]
- IC50 [2]: < 100 nM

SMILES: Cc1cc(Nc2nccc(-c3cccs3)n2)cc(-c2cnc(C3(O)CCNC(=O)CC3)s2)c1 (stereo not shown) [113C-12]
- IC50 [3]: < 100 nM

SMILES: COC(=O)NS(=O)(=O)N1CCC(O)(c2ncc(-c3cc(C)cc(Nc4nccc(OC)n4)c3)s2)CC1 [Example 54A-18]
- IC50 [2]: < 100 nM

SMILES: Cc1cc(Nc2nccc(C(F)F)n2)cc(-c2cnc(C3(O)CCNC(=O)CC3)s2)c1 (stereo not shown) [113C-7]
- IC50 [3]: < 100 nM

SMILES: Cc1cc(Nc2nccc(C(F)(F)F)n2)cc(-c2cnc(C3(O)CCC(C(=O)NCc4cc(O)no4)CC3)s2)c1 (stereo not shown) [Example 119-65]
- IC50 [4]: < 100 nM

SMILES: Cc1cc(Nc2ncc(F)c(C)n2)cc(-c2cnc(C3(O)CCC(C(=O)O)C(C)(C)C3C)s2)c1 (stereo not shown) [33A-74]
- IC50 [5]: < 100 nM

SMILES: Cc1cc(Nc2nccc(OCCC3CCCN3C)n2)cc(-c2cnc(C3(O)CCC3)s2)c1 (stereo not shown) [Example 108A-17]
- IC50 (read-out: rhSYK activity): < 100 nM

SMILES: COC(=O)c1cccc(N2CCC(O)(c3ncc(-c4cc(C)cc(Nc5nccc(C(F)(F)F)n5)c4)s3)C2)c1 (stereo not shown) [Example 54B-35]
- IC50 [2]: < 100 nM

SMILES: COc1nc(Nc2cc(C)cc(-c3cnc(C4(O)CCCNCC4)s3)c2)ncc1Cl (single isomer, unassigned) [113C-16]
- IC50 [3]: < 100 nM

SMILES: CCOC(=O)C1CCC(O)(c2ncc(-c3cc(C)cc(Nc4nccc(C(F)(F)F)n4)c3)s2)C(C)C1C (stereo not shown) [Example 113A-77]
- IC50 (read-out: rhSYK Activity, Table 113A): < 100 nM

SMILES: Cc1cc(Nc2nccc(C3CC3)n2)cc(-c2cnc(C3(O)CCCN(C(=O)OC(C)(C)C)CC3)s2)c1 (single isomer, unassigned) [113C-17]
- IC50 [3]: < 100 nM

SMILES: Cc1cc(Nc2nccc(C(C)F)n2)cc(-c2cnc(C3(O)CCNC(=O)CC3)s2)c1 (single isomer, unassigned) [113C-4]
- IC50 [3]: < 100 nM

SMILES: CC1(c2ncc(-c3cc(Nc4nccc(C(F)(F)F)n4)cc(N4CCOCC4)c3)s2)OCCO1 [Example 24-2]
- IC50 (read-out: rhSYK Activity, Table 24): < 100 nM

SMILES: Cc1cc(Nc2nccc(C(F)(F)F)n2)cc(-c2cnc(C3(O)CCC(C(=O)NCc4cc(-c5ccccn5)no4)CC3)s2)c1 (stereo not shown) [Example 119-101]
- IC50 [4]: < 100 nM

SMILES: Cc1cc(Nc2nccc(C(F)(F)F)n2)cc(-c2cnc(C3(O)CC(C(=O)O)C(C)(C)C3)s2)c1 (single isomer, unassigned) [Example 33B-7]
- IC50 [6]: < 100 nM

SMILES: Cc1cc(Nc2nccc(C3CC3)n2)cc(-c2cnc(C3(O)CCNC(=O)CC3)s2)c1 (stereo not shown) [113C-2]
- IC50 [3]: < 100 nM

SMILES: Cc1cc(Nc2nccc(C(F)(F)F)n2)cc(-c2cnc(C3CCCCC(=O)C3)s2)c1 (stereo not shown) [Example 36A-10]
- IC50 [1]: < 100 nM

SMILES: COC1CC(O)(c2ncc(-c3cc(C)cc(Nc4nccc(C(F)(F)F)n4)c3)s2)CCC1C(=O)O (stereo not shown) [Example 33B-14]
- IC50 [6]: < 100 nM

SMILES: Cc1cc(Nc2nccc(OC3CCNCC3)n2)cc(-c2cnc(C3(NC(=O)NC(N)=O)CCC3)s2)c1 [Example 65-5]
- IC50 (read-out: rhSYK activity): < 100 nM

Further lines, results first:

- IC50 [2]: < 100 nM
SMILES: Cc1cccc(NC(=O)N2CCC(O)(c3ncc(-c4cc(C)cc(Nc5nccc(C(F)(F)F)n5)c4)s3)CC2)c1 [Example 54A-63]

- IC50 [4]: < 100 nM
SMILES: Cc1cc(Nc2nccc(C(F)(F)F)n2)cc(-c2cnc(C3(O)CCC(C(=O)NCc4ncc[nH]4)CC3)s2)c1 (stereo not shown) [Example 119-38]

- IC50 [5]: < 100 nM
SMILES: CCOC(=O)C1CCC(O)(c2ncc(-c3cc(C)cc(Nc4nccc(C(F)(F)F)n4)c3)s2)CC1 (stereo not shown) [33A-5]

- IC50 [2]: < 100 nM
SMILES: Cc1cc(Nc2nccc(C(F)(F)F)n2)cc(-c2cnc(C3(O)CCCN(C(=O)CCn4cncn4)CC3)s2)c1 (racemic) [Example 54D-89]

- IC50 [4]: < 100 nM
SMILES: Cc1cc(Nc2nccc(C(F)(F)F)n2)cc(-c2cnc(C3(O)CCC(C(=O)NCc4nncs4)CC3)s2)c1 (stereo not shown) [Example 119-67]

- IC50 [2]: < 100 nM
SMILES: Cc1cc(Nc2nccc(C(F)(F)F)n2)cc(-c2cnc(C3(O)CCCN(CC(=O)OC(C)(C)C)CC3)s2)c1 (stereo not shown) [Example 54A-89]

- IC50 [4]: < 100 nM
SMILES: Cc1cc(Nc2nccc(C(F)(F)F)n2)cc(-c2cnc(C3(O)CCC(C(=O)NCc4ncon4)CC3)s2)c1 (stereo not shown) [Example 119-45]

- IC50 (read-out: rhSYK activity): < 100 nM
SMILES: Cc1cc(Nc2nccc(C(F)(F)F)n2)cc(-c2cnc(C3(O)CCC(NC(=O)[C@H](C)O)CC3)s2)c1 (stereo in doubt) [Example 54E-2]

- IC50 [5]: < 100 nM
SMILES: CCOC(=O)C1CCC(O)(c2ncc(-c3cc(C)cc(Nc4nccc(C(F)(F)F)n4)c3)s2)CC1 (stereo not shown) [33A-7]

- IC50 [6]: < 100 nM
SMILES: Cc1cc(Nc2nccc(C(F)(F)F)n2)cc(-c2cnc(C3(O)CCC(C(=O)O)C4(CC4)C3)s2)c1 (stereo not shown) [Example 33B-17]

- IC50 (read-out: rhSYK Activity, Table 113D, lower part (Structure)): < 100 nM
SMILES: Cc1cc(Nc2nccc(C(F)(F)F)n2)cc(-c2cnc(C3(O)CCC(C(=O)O)OC3)s2)c1 (single isomer, unassigned) [Example 113D-12]
